Test results: US20160345827A1, “TWO-PHOTON MICROSCOPY IMAGING RETINA CELL DAMAGE” (POLGENIX, INC., priority 2014, published 2016)
Entries after “also recorded” stand apart in the source; their conditions may differ.

How the values were obtained:
retinoid cycle = retinoid cycle inhibition before light exposure, LC/MS metabolic profile of retina; format: in vivo; conditions: pretreatment of Abca4^−/−Rdh8^−/− mice several hours before light exposure
Protocol: At day 3 after light exposure, mouse retinas were dissected and homogenized in 0.3 mL of ice-cold acetonitrile. Samples were vortexed for 30 s followed by centrifugation for 15 min at 16,000×g. Clear supernatants were collected and used directly for LC/MS analyses. Each retinal extract was injected onto a reverse-phase C18 Phenomenex HPLC column (250×4.60 mm; 5 μm) preequilibrated with 5% acetonitrile in water. […] Total ion chromatograms were analyzed with XCMS software available online at the Scripps Center for Metabolomics.
Fluorophores responsible for AF in the retina could be an indicator of global changes in the metabolic profile of this tissue. To evaluate and quantify these changes as well as determine whether they depend on a functional retinoid cycle, we used both genetically altered (Lrat^−/−) and pharmacologically treated (retinylamine) mice with metabolic profiles that were compared with light-exposed and dark-adapted Abca4^−/−Rdh8^−/− mice by using a LC/MS approach. […] To investigate the origin of these light-induced alterations, we first analyzed the metabolic profile of retinal samples isolated from light-exposed lecithin:retinol acyltransferase (LRAT)-deficient mice that cannot produce visual chromophore. […]

Abca4^−/−Rdh8^−/− mice = test: light-induced retinal degeneration in Abca4^−/−Rdh8^−/− mice, TPM and histology at day 7
[1] = after treatment with Ret-NH2; diminished 7 days after treatment; cited from earlier work
[2] = system: RPE of Abca4^−/−Rdh8^−/− (DKO) mice; test: two-photon trans-pupil imaging of fluorescent granules in RPE after bright light; conditions: 2 mg Ret-NH2 gavage 13 to 16 h prior to 10,000 lux for 60 min; ex vivo imaging 7 and 14 days after light
From the text: All animal procedures and experiments were approved by the Institutional Animal Care and Use Committee at Case Western Reserve University and conformed to recommendations of both the American Veterinary Medical Association Panel on Euthanasia and the Association for Research in Vision and Ophthalmology. B6(Cg)-Tyrc-2J/J mice were purchased from The Jackson Laboratory. Abca4^−/−Rdh8^−/− (DKO) and Rpe65^−/− mice were generated and genotyped as previously described. Human opsinGFP fusion, knockin hrhoG/hrhoG mice, expressing human rhodopsinGFP in photoreceptor outer segments were kindly provided by Dr. John H. Wilson (Baylor College of Medicine). […]
After treatment with Ret-NH2 the content of fluorescent retinyl esters increases in the eye as reported previously. […] For quantification of the impact of drug treatment, the same detector settings were used for mice that were treated and not treated with Ret-NH2. […]
The tunable, 690-1050 nm, Chameleon VisionS generated 75 fs laser pulses at 80 MHz pulse repetition frequency. […] In twophoton imaging, the excitation matters most because the emission fluorescence is generated only in the focal spot; therefore, it is critical to achieve a tightly focused excitation beam. […]

## CC1=C(/C=C/C(C)=C/C=C/C(C)=C/CN)C(C)(C)CCC1 [retinylamine]
Retinoid cycle
  regeneration of visual chromophore in the eye: markedly reduced
Abca4^−/−Rdh8^−/− mice; 730 nm and 850 nm excitation, day 7 after light, Ret-NH2 1 mg oral gavage, Apo 1 mg i.p.
  RPE autofluorescence appearance by TPM: increased fluorescence of retinosomes
Abca4^−/−Rdh8^−/− mice; Ret-NH2 1 mg per mouse oral gavage 16 h before, or Apo 1 mg/mouse i.p. 30 min before 10,000 lx light for 60 min, day 7
  light-induced retinal degeneration (retinal histology): can be prevented; also recorded: conferred protection
[1]
  content of fluorescent retinyl esters in the eye: increases
[2]
  accumulation of fluorescent granules in the RPE: no deposits; also recorded: protects RPE
